Earlier results as cited in patent US20090061517A1, “Cell culture apparatus and methods of making and using same” (priority 2007, published 2009).

Conditions: in humans

Row | SMILES | idiosyncratic hepatotoxicity / idiosyncratic adverse drug reactions
1 | C[C@H]1COc2c(N3CCN(C)CC3)c(F)cc3c(=O)c(C(=O)O)cn1c23 [levofloxacin] | without liability for causing idiosyncratic adverse drug reactions
2 | N[C@@H]1[C@H]2CN(c3nc4c(cc3F)c(=O)c(C(=O)O)cn4-c3ccc(F)cc3F)C[C@@H]12 [trovafloxacin] | linked to idiosyncratic hepatotoxicity in humans
